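Step 1: Grow cells in 96-well plates. Step 2: Expose to compound for 48 hours at 5 concentrations. Step 3: Interpolate endpoints linearly; if unreached, use highest concentration. GI50 = concentration required for 50% inhibition of growth.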 The source made the active and inactive calls. No stated cut-off is given here; in the data, active = GI50 up to about 1.1 µM and inactive = higher.
Experiments:
Experiment in all cases: DTP human tumour cell line panel, 48 h
[1] = system: Malme-3M
[2] = system: HCT-116
[3] = system: A549
[4] = system: M14
[5] = system: SN12C
[6] = system: HOP-92
[7] = system: SNB-19
[8] = system: KM12
[9] = system: MDA-N
[10] = system: OVCAR-8
[11] = system: HOP-62
[12] = system: COLO 205
[13] = system: NCI-H460
[14] = system: CAKI-1
[15] = system: SF-268
[16] = system: MCF7
[17] = system: NCI-H23
[18] = system: HT-29
[19] = system: SNB-75
[20] = system: HCC 2998

Row | SMILES | GI50 [1] | GI50 [2] | GI50 [3] | GI50 [4] | GI50 [5] | GI50 [6] | GI50 [7] | GI50 [8] | GI50 [9] | GI50 [10] | GI50 [11] | GI50 [12] | GI50 [13] | GI50 [14] | GI50 [15] | GI50 [16] | GI50 [17] | GI50 [18] | GI50 [19] | GI50 [20]
1 | COc1ccc(/C=C/C(=O)C(C)(C)Br)cc1 | 13.5 µM (inactive) | 2.19 µM (inactive) | 20.3 µM (inactive) | 1.56 µM (inactive) | 4.95 µM (inactive) | 11.8 µM (inactive) | 25.8 µM (inactive) | 16.1 µM (inactive) | 7.57 µM (inactive) | 3.04 µM (inactive) | 6.3 µM (inactive) | 15 µM (inactive) | 18.9 µM (inactive) | 17.4 µM (inactive) | 15.2 µM (inactive) | 5.11 µM (inactive) | 2.25 µM (inactive) |  |  | 
2 | Cc1ccc(Nc2nc(=O)c3c([nH]c4ccccc43)s2)cc1 | 10.6 µM (inactive) |  | 12.6 µM (inactive) | 6.59 µM (inactive) | 15 µM (inactive) | 10.1 µM (inactive) | 26.4 µM (inactive) | 3.43 µM (inactive) | 2.34 µM (inactive) | 15.4 µM (inactive) | 10.2 µM (inactive) | 10.9 µM (inactive) | 10.1 µM (inactive) | 8.55 µM (inactive) | 16.7 µM (inactive) |  |  | 10.8 µM (inactive) | 16.1 µM (inactive) | 
3 | COc1ccc(CNc2nc(NCc3ccc(OC)cc3)nc(NC3CCCC3)n2)cc1 | 8.53 µM (inactive) | 2.64 µM (inactive) | 5.26 µM (inactive) | 2.91 µM (inactive) | > 19.8 µM (inactive) |  | 6.28 µM (inactive) | 0.28 µM (active) |  | 4.06 µM (inactive) | 3.07 µM (inactive) | 3.05 µM (inactive) | 3.6 µM (inactive) | 4.02 µM (inactive) | 7.18 µM (inactive) | 3.31 µM (inactive) | 2.99 µM (inactive) | 3.04 µM (inactive) | 16.4 µM (inactive) | 
4 | O=[N+]([O-])c1ccc2c(c1)c(S(=O)(=O)O)cc1nonc12 | > 100 µM (inactive) | > 100 µM (inactive) | > 100 µM (inactive) | > 100 µM (inactive) | > 100 µM (inactive) | > 100 µM (inactive) | > 100 µM (inactive) | > 100 µM (inactive) | > 100 µM (inactive) | > 100 µM (inactive) | > 100 µM (inactive) | > 100 µM (inactive) | > 100 µM (inactive) | > 100 µM (inactive) | > 100 µM (inactive) | > 100 µM (inactive) | > 100 µM (inactive) | > 100 µM (inactive) |  | 
5 | CN(CC(=O)O)c1ncc2c(n1)-c1ccccc1OC2 | > 100 µM (inactive) | > 100 µM (inactive) | > 100 µM (inactive) | > 100 µM (inactive) | > 100 µM (inactive) | > 100 µM (inactive) | > 100 µM (inactive) | > 100 µM (inactive) | > 100 µM (inactive) | > 100 µM (inactive) |  | > 100 µM (inactive) | > 100 µM (inactive) | > 100 µM (inactive) | > 100 µM (inactive) | > 100 µM (inactive) | > 100 µM (inactive) | > 100 µM (inactive) | > 100 µM (inactive) | 
6 | Cc1cc(NS(=O)(=O)c2ccc(NC(=O)c3cccc4c(Nc5ccc(S(=O)(=O)N=C(N)N)cc5)c5ccccc5nc34)cc2)no1 | > 100 µM (inactive) | > 100 µM (inactive) | > 100 µM (inactive) | > 100 µM (inactive) | > 100 µM (inactive) | > 100 µM (inactive) | > 100 µM (inactive) | > 100 µM (inactive) |  | > 100 µM (inactive) | > 100 µM (inactive) | > 100 µM (inactive) | > 100 µM (inactive) | > 100 µM (inactive) | > 100 µM (inactive) |  | > 100 µM (inactive) | > 100 µM (inactive) | > 100 µM (inactive) | > 100 µM (inactive)
7 | CC1(C)CCC[C@@]2(C)C1C[C@H](O)[C@@]1(C)O[C@@](C)([C@H](O)CO)CCC21 (stereo not given in full) | 40.6 µM (inactive) | 33 µM (inactive) | 36.2 µM (inactive) | 34.6 µM (inactive) | 37.2 µM (inactive) | 23.7 µM (inactive) | 49.8 µM (inactive) | 37.2 µM (inactive) |  | 39.3 µM (inactive) | 62.7 µM (inactive) | 25.3 µM (inactive) | 40.9 µM (inactive) | 35.8 µM (inactive) | 30.4 µM (inactive) |  | 33.7 µM (inactive) | 33 µM (inactive) | 20.1 µM (inactive) | 60.8 µM (inactive)
8 | CC(C(O)c1ccccc1)[N+](=O)[O-] (stereo not given) | 21.7 µM (inactive) | 37.6 µM (inactive) | 17.7 µM (inactive) | 6.43 µM (inactive) | 18.1 µM (inactive) |  | 24.5 µM (inactive) | 19.4 µM (inactive) |  | 16.4 µM (inactive) | 25.3 µM (inactive) | 22.4 µM (inactive) | 35.2 µM (inactive) | 14.2 µM (inactive) | 31.5 µM (inactive) | 3.64 µM (inactive) | 32.8 µM (inactive) | 27.2 µM (inactive) | 40.6 µM (inactive) | 10.9 µM (inactive)
